From patent US4221794A, “Method of imparting immunomodulating and antiviral activity” (Newport Pharmaceuticals International, Inc., priority 1979, dated 1980)
Read-outs that look alike come from different tables or passages of the source.

Tests used:
influenza virus [1] = assay: Anti-influenza activity (overall); type: cell-based, several strains of A and B sub-types
influenza virus [2] = assay: microbe, parasite or virus in culture; type: cell-based, influenza virus Type A/USSR 90 (HeLa cell cultures); conditions: for inhibition at 100 µg/mL: read-out: % Inhibition of Hemadsorption Foci, Test Compound Conc. >100 μg/ml
[3] = test system: human peripheral blood lymphocytes; assay: Mitogen (PHA) induced human lymphocyte proliferation; type: cell-based; conditions: plus = immunostimulating, minus = immunoinhibiting, 0 = neither
mouse lymphocytes = assay: Mitogen (Con A) induced mouse lymphocyte (spleen cell) proliferation; type: cell-based; conditions: plus = immunostimulating, minus = immunoinhibiting, 0 = neither
From the text: The following three assay procedures are used to evaluate the ability of the test substances to modulate the activity of several classes of cells in the immune system. In these systems it is possible to identify both immunopotentiating activity (evidence by an enhancement of the parameter examined) as well as immunosuppressant activity (evidenced by an inhibition of the parameter examined).
1. Mitogen-Induced Mouse Spleen Cell Assay
Mouse spleen cells contain a population of both B and T lymphocytes which can be stimulated by a number of foreign substances (e.g., plant mitogens such as Con A) to proliferate. This enhanced proliferation is an indication of enhanced cell mediated immunity. The method below describes the system used to evaluate test substances as immunopotentiators.
Concanavalin A (Calbiochem, La Jolla, California), Lot #210073, lyophilized in NaCl, was prepared first as a 1% solution and diluted as a 2×concentration for each dilution (0.5, 1.0, 2.5 μg/ml).
Six to eight week old male Balb/c and C3 H inbred mice were obtained from the following sources: Flow Research Animals, Inc., Dublin, Virginia; Charles River Breeding Laboratories, Wilmington, Massachusetts; Laboratory Supply Company, Indianapolis, Indiana; and Lionel Strong Foundation, San Diego, California.
Three to five mice were sacrificed by cervical dislocation and the spleens aseptically removed. Pooled spleens were minced and teased with sterile forceps; then strained through a double layer of nylon mesh. The cell suspension was washed once with 15 ml of RPMI 1640 supplemented with 5% fetal calf serum and antibiotics. Cells were cultured at a concentration of 10^6 cells/0.1 ml/well in micro-plates. Cultures were incubated in the presence or absence of mitogen in a humidified atmosphere containing 5% CO2 for 48 hours. The test compound was added to cultures at various concentrations concommitant with mitogen.
Proliferation was assayed by the degree of incorporation of 1.0 μCi of [^3 H] thymidine over an 18 hour incubation period. Cultures were harvested by a MASH unit (Otto Hiller Co., Madison, Wisconsin) and thymidine incorporation was assayed by liquid scintillation spectrometry. Cultures were performed in triplicate and data are expressed as means plus or minus the standard error of the experimental means. Drug stimulation indices over control values were also calculated and portrayed graphically.
(§1) Table 4 above presents the results of an evaluation of a number of these subject compounds as potentiators of the immune response. Three different test systems were used. The first involves a measure of the ability of the test compound to enhance the ability of mouse lymphocytes to proliferate in response to a plant mitogen (Con A). The second involves measuring the ability of the test compounds to enhance human lymphocyte proliferation in response to a second plant mitogen (PHA). The third system measures the ability of these test substances to enhance macrophage proliferation in response to a natural lymphokine (MMF, Macrophage Mitogenic Factor).

guinea pig macrophages = assay: Lymphokine (MMF) induced guinea pig macrophage proliferation; type: cell-based; conditions: plus = immunostimulating, minus = immunoinhibiting, 0 = neither
Method: 3. The macrophage represents a subpopulation of white blood cells which is an important component of the immune system in control of both cellular and humoral immunity. The assay system described below evaluates the substances studied as potentiators of macrophage function.
Phytohemagglutinin (PHA) (HA-17) was purchased from Burroughs Wellcome. A preparation containing Macrophage Mitogen Factor (MMF) and Macrophage Activating Factor (MAF) was prepared from antigen-stimulated immune lymph node lymphocytes (guinea pig) as previously described by Hadden et al, Nature 257, 483-485 (1975). […] The active fraction was employed in both the proliferation and activation assays.
Ficoll-hypaque purified human peripheral blood lymphocytes were prepared and PHA-induced lymphocyte proliferation was assayed by the incorporation of tritiated thymidine as described in Hadden et al., Cell. Immunol. 20, 98-103 (1975). Each compound was analyzed in the presence of suboptimal, optimal and supraoptimal concentrations of PHA (0.001, 0.01, 0.1 units/ml respectively). Paraffin oil-induced guinea pig peritoneal macrophages were prepared and incubated as monolayer culture (>98% pure macrophages). Lymphokine (MMF)-induced proliferation was assayed by the incorporation of tritiated thymidine at 3 and 5 days of culture as described, Hadden et al, Nature 257, 483-485 (1975). Lymphokine (MAF)-induced macrophage activation to kill Listeria monocytogenes following 5 days of culture in the presence or absence of MAF was performed during a 6 hour period as described in Hadden and England, Immunopharmacology, pages 87-100 (Plenum Press, 1977). Phagocytosis was quantitated during a 20-minute exposure to Listeria monocytogenes by counting the number of macrophages containing bacteria and the number of bacteria per phagocytic cell on gram stained monolayers in Labtek chambers. Intracellular killing of bacteria was evaluated by counting the number of cells containing bacteria and the number of bacteria/cell 6 hours after the initial 20 minute exposure. Parallel experiments in which macrophages were lysed and intracellular bacteria were cultured confirm the validity of bacterial activity determined by this manner in this system. The drugs were employed in each of the three systems over serial log concentration range in triplicate in the presence and absence of mitogen or lymphokine. Each type of experiment was performed at least three times. Previous experiments indicate a parallelism of response to pharmacologic modulation in the proliferation and achivation assays.
as §1

SMILES: CC(O)Cn1cnc2c(N)ncnc21 (stereo not drawn) [NPT 15432]
- potentiation of anti-influenza activity by DIP.PAcBA salt (influenza virus [1]): Yes
- % Inhibition of Hemadsorption Foci (influenza virus [2]; Test Compound Conc. >100 μg/ml, listed as 15432): 62%

SMILES: CC(=O)Nc1ccc(C(=O)O)cc1.CC(O)CN(C)C [compound 15110, dimethylamino-2-propanol-p-acetamido benzoate, reference compound]
- % Inhibition of Hemadsorption Foci (influenza virus [2]): 0%

SMILES: CC(CO)n1cnc2c(N)ncnc21 (stereo not drawn) [NPT 15434]
- potentiation of anti-influenza activity by DIP.PAcBA salt (influenza virus [1]): Yes
- % Inhibition of Hemadsorption Foci (influenza virus [2]; Test Compound Conc. >100 μg/ml, listed as 15434): 62%

SMILES: O=c1[nH]cnc2c1ncn2CCO [NPT 15425, 9-HYDROXYETHYL HYPOXANTHINE]
- Maximum Percent Change, Mitogen Induced (PHA) Human Lymph. Prolif. ([3]; 1.0-10 (unit not given)): 0%
- Maximum Percent Change, Mitogen Induced (PHA) Human Lymph. Prolif. ([3]; 10-100 (unit not given)): 0%
- Maximum Percent Change, Mitogen Induced (PHA) Human Lymph. Prolif. ([3]; .01-1.0 (unit not given)): 100%
- Maximum Percent Change, Mitogen Induced (Con A) Mouse Lymph. Prolif. (mouse lymphocytes; 1.0-10 (unit not given)): 0%
- Maximum Percent Change, Mitogen Induced (Con A) Mouse Lymph. Prolif. (mouse lymphocytes; .01-1.0 (unit not given)): 11%

SMILES: CC(CO)n1cnc2c(Cl)ncnc21 (stereo not drawn) [NPT 15423, 9-(1-HYDROXY-2-PROPANE)-6-CHLOROPURINE]
- inhibition at 10 µg/mL (influenza virus [2]; unidentified influenza virus, read-out: % Inhibition of Hemadsorption Foci, Test Compound Conc. <10 μg/ml): 2%
- inhibition at 100 µg/mL (influenza virus [2]; unidentified influenza virus): 6%

SMILES: OCCn1cnc2c(=S)[nH]cnc21 [NPT 15435]
- Maximum Percent Change, Mitogen Induced (PHA) Human Lymph. Prolif. ([3]; 1.0-10 (unit not given)): 45%
- Maximum Percent Change, Mitogen Induced (PHA) Human Lymph. Prolif. ([3]; 10-100 (unit not given)): -50%
- Maximum Percent Change, Mitogen Induced (PHA) Human Lymph. Prolif. ([3]; .01-1.0 (unit not given)): 55%
- inhibition at 100 µg/mL (influenza virus [2]; unidentified influenza virus): 10%

SMILES: CC(O)Cn1cnc2c(=O)[nH]cnc21 (stereo not drawn) [NPT 15446, 9-(2-HYDROXY-1-PROPYL)HYPOXANTHINE]
- Maximum Percent Change, Mitogen Induced (PHA) Human Lymph. Prolif. ([3]; 1.0-10 (unit not given)): 0%
- Maximum Percent Change, Mitogen Induced (PHA) Human Lymph. Prolif. ([3]; 10-100 (unit not given)): 0%
- Maximum Percent Change, Mitogen Induced (PHA) Human Lymph. Prolif. ([3]; .01-1.0 (unit not given)): 0%
- % Inhibition of Hemadsorption Foci (influenza virus [2]; Test Compound Conc. <10 μg/ml, listed as 15446): 2%
- % Inhibition of Hemadsorption Foci (influenza virus [2]; Test Compound Conc. >100 μg/ml, listed as 15446): 0%
- Maximum Percent Change, Mitogen Induced (Con A) Mouse Lymph. Prolif. (mouse lymphocytes; 1.0-10 (unit not given)): 12%
- Maximum Percent Change, Mitogen Induced (Con A) Mouse Lymph. Prolif. (mouse lymphocytes; 10-100 (unit not given)): 0%
- Maximum Percent Change, Mitogen Induced (Con A) Mouse Lymph. Prolif. (mouse lymphocytes; .01-1.0 (unit not given)): 6%
- Maximum Percent Change, Lymphokine Induced (MMF) Guinea Pig Mac. Prolif. (guinea pig macrophages; 1.0-10 (unit not given)): 0%
- Maximum Percent Change, Lymphokine Induced (MMF) Guinea Pig Mac. Prolif. (guinea pig macrophages; 10-100 (unit not given)): 0%
- Maximum Percent Change, Lymphokine Induced (MMF) Guinea Pig Mac. Prolif. (guinea pig macrophages; .01-1.0 (unit not given)): 0%
